Patent publication US11547697B2, “Heterocyclic compounds and uses thereof” (MILLENNIUM PHARMACEUTICALS, INC., priority 2009, dated 2023)
Where two headings read alike, the source gives them in different places.

Assays:
Assay type in all cases: biochemical
[1] = biological target: p110α/p85α (Homo sapiens (Human), UniProt P42336); test: PI 3-Kinase (human) HTRF assay, p110α/p85α
[2] = biological target: p110γ (Homo sapiens (Human), UniProt P48736); test: PI 3-Kinase (human) HTRF assay, p110γ
[3] = biological target: p110β/p85α (Homo sapiens (Human), UniProt P42338); test: PI 3-Kinase (human) HTRF assay, p110β/p85α
Sequence of p110β/p85α (P42338 whole entry): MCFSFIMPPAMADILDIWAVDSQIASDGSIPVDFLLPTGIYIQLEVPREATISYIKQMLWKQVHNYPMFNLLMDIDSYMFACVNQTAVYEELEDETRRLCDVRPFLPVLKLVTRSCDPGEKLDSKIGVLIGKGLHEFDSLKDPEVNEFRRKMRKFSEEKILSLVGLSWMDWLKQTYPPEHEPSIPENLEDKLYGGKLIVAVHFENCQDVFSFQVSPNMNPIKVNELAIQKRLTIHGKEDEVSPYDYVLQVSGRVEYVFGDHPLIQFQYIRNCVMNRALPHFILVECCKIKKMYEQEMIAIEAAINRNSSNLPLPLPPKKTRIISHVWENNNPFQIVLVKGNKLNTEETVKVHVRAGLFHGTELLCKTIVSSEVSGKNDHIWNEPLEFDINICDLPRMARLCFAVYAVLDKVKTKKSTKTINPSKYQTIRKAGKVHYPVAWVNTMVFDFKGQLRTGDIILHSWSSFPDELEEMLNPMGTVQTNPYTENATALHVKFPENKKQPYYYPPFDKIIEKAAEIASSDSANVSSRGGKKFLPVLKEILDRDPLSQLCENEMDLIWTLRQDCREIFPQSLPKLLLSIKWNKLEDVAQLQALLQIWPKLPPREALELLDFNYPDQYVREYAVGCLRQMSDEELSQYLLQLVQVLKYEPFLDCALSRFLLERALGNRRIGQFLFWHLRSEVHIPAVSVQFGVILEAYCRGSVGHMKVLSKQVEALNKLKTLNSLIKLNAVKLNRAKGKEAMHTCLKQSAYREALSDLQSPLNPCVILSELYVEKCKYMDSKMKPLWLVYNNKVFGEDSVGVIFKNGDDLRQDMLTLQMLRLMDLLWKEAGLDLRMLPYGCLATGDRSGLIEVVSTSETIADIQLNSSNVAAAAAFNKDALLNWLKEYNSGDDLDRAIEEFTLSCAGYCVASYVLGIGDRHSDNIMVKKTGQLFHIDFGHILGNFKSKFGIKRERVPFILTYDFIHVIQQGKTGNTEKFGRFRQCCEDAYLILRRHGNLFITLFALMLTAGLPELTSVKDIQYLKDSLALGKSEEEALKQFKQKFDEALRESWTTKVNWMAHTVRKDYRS
Sequence of p110β/p85α (P27986 whole entry partner): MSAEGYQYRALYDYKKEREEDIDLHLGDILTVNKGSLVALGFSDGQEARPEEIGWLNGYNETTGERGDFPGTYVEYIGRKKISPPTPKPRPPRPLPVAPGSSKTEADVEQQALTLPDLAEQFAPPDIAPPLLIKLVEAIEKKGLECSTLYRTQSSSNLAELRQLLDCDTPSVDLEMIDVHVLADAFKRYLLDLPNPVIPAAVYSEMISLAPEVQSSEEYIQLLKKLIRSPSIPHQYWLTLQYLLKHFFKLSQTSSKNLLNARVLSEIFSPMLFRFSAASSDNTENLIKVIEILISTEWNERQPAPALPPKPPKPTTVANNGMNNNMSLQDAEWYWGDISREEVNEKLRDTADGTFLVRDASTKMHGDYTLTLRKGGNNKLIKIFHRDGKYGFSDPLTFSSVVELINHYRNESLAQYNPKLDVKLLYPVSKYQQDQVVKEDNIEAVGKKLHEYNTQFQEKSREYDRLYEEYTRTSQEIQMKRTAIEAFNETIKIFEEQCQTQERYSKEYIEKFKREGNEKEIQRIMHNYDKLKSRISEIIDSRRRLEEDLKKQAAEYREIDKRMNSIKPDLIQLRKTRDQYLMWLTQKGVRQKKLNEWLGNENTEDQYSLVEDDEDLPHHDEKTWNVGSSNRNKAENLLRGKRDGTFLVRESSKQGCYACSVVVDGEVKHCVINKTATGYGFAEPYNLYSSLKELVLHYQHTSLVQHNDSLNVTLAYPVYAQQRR

[4] = biological target: p110δ/p85α (Homo sapiens (Human), UniProt O00329); test: PI 3-Kinase (human) HTRF assay, p110δ/p85α
Sequence of p110δ/p85α (O00329 whole entry): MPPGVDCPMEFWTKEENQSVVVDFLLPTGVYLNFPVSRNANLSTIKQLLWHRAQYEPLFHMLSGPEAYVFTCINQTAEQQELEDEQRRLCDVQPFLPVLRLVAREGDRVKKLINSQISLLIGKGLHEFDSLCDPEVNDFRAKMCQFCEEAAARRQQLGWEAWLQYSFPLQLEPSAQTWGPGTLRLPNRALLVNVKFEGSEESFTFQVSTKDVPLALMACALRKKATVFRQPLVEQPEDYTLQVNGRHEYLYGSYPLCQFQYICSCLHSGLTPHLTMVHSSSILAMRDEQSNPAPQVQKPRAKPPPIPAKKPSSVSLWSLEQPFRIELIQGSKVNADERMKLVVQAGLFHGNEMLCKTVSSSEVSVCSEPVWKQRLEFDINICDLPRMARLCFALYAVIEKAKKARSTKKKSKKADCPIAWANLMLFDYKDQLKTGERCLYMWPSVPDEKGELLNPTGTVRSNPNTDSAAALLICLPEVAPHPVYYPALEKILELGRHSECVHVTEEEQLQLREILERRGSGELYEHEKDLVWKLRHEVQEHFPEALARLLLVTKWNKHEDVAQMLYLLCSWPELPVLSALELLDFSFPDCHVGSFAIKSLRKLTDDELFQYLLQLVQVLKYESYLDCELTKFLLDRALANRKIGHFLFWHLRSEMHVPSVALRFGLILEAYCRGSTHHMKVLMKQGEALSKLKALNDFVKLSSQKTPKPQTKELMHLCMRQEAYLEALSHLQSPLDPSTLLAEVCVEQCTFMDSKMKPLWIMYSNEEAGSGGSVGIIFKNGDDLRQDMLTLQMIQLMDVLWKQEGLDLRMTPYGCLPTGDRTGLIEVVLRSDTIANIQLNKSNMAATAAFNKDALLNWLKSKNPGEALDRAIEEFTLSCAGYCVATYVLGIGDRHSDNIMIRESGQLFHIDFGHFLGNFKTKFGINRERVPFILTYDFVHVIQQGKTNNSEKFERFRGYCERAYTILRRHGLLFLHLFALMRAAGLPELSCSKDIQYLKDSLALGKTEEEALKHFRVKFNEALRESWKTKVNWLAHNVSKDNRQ
Sequence of p110δ/p85α (P27986 whole entry partner): as the sequence (P27986 whole entry partner) above

[5] = in vitro, read-out: PI3K α IC50
[6] = in vitro, read-out: PI3K γ IC50
[7] = in vitro, read-out: PI3K β IC50
[8] = in vitro, read-out: PI3K δ IC50

Sequence of p110α/p85α (P42336 whole entry): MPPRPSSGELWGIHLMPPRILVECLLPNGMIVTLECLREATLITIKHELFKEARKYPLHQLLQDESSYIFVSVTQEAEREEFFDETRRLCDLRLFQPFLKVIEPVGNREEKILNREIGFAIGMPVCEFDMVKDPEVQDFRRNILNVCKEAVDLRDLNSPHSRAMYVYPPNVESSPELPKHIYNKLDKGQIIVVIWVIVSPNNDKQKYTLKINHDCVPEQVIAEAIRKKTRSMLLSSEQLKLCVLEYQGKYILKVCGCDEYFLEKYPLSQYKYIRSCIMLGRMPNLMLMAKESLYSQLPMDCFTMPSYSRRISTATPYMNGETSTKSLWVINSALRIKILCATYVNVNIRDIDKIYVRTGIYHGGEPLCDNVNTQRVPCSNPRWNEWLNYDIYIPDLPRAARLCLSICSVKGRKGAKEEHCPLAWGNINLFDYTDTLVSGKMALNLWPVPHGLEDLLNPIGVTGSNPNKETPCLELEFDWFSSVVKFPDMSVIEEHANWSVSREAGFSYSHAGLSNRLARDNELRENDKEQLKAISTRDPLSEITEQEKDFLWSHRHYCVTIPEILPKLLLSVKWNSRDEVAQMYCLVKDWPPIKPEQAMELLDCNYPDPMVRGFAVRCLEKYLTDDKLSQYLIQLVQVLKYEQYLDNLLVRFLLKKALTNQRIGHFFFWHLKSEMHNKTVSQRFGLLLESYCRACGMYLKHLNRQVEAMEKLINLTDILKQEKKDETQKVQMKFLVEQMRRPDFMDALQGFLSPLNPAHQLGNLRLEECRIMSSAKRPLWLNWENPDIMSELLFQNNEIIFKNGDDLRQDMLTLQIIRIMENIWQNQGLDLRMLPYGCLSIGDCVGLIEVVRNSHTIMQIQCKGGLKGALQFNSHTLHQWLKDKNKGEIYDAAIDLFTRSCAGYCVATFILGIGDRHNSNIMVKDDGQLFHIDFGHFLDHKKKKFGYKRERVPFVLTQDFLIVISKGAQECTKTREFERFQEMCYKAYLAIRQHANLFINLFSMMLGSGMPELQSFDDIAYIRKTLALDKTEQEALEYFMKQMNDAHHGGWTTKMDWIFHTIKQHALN
Sequence of p110α/p85α (P27986 whole entry partner): as the sequence (P27986 whole entry partner) above
Sequence of p110γ (P48736 whole entry): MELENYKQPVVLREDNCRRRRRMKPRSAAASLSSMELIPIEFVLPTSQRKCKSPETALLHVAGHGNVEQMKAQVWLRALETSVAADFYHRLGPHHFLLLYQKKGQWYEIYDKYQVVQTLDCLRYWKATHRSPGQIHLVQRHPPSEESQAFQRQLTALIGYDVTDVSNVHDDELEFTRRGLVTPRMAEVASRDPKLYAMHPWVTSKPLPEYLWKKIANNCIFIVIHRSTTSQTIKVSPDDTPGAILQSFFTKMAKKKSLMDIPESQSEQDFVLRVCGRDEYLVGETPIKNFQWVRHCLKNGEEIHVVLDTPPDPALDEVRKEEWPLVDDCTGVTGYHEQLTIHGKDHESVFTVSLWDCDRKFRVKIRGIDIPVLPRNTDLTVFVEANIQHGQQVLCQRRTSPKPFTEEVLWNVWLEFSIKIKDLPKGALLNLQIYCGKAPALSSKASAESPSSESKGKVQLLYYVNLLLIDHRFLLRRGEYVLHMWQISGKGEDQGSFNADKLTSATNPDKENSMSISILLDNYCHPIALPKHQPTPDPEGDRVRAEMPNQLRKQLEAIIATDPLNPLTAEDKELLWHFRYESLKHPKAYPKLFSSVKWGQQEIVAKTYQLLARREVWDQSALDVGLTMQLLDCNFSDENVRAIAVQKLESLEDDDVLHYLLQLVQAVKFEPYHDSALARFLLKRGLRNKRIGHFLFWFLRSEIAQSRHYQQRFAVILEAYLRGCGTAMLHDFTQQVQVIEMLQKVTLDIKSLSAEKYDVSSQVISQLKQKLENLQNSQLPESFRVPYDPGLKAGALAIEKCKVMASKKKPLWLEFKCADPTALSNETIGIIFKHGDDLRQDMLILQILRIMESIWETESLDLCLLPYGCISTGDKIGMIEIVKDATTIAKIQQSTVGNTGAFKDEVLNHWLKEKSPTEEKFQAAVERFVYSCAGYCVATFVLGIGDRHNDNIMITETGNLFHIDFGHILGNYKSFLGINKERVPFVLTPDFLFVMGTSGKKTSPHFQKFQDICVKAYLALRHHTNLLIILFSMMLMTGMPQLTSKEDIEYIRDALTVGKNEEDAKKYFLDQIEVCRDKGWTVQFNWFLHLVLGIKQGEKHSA

Compound	IC50 ([1]; read-out: PI3K α IC50)	IC50 ([2]; read-out: PI3K γ IC50)	IC50 ([3]; read-out: PI3K β IC50)	IC50 ([4]; read-out: PI3K δ IC50)	IC50 [1, 5]	IC50 [2, 6]	IC50 [3, 7]	IC50 [4, 8]	also measured
CN1CCN(c2ncnc3ccc(-c4ccc5oc(N)nc5c4)cc23)CC1 [compound 23]	< 100 nM	< 100 nM	< 1000 nM	< 10000 nM	–	–	–	–	–
COc1ncc(-c2ccc3ncc(C(=O)N4CCOCC4)n3c2)cc1NS(=O)(=O)c1ccccc1F [compound 422]	–	–	–	–	–	–	–	–	IC50 ([1]; read-out: PI3K α In Vitro IC50): < 100 nM; IC50 ([2]; read-out: PI3K γ In Vitro IC50): < 100 nM; IC50 ([3]; read-out: PI3K β In Vitro IC50): < 10000 nM; IC50 ([4]; read-out: PI3K δ In Vitro IC50): < 1000 nM
Nc1nc2cc(-c3ccc4ncc(C(=O)N5CC[C@@H](N6CCOCC6)C5)n4c3)ccc2o1 [compound 466]	–	–	–	–	–	–	–	–	IC50 ([1]; read-out: PI3K α In Vitro IC50): < 1000 nM; IC50 ([2]; read-out: PI3K γ In Vitro IC50): < 1000 nM; IC50 ([3]; read-out: PI3K β In Vitro IC50): < 10000 nM; IC50 ([4]; read-out: PI3K δ In Vitro IC50): < 10000 nM
CC(C)(C#N)c1ccc(Nc2ncnc3ccc(-c4ccc5oc(N)nc5c4)cc23)cc1 [compound 102]	< 100 nM	< 100 nM	< 1000 nM	< 1000 nM	–	–	–	–	–
Nc1nc2cc(-c3ccc4ncc(-c5cn[nH]c5)nc4c3)ccc2o1 [compound 78]	< 100 nM	< 100 nM	< 1000 nM	< 1000 nM	–	–	–	–	–
C[C@@H]1CCCN1C(=O)c1cnc2ccc(-c3ccc4oc(N)nc4c3)cn12 [compound 481]	–	–	–	–	–	–	–	–	IC50 ([1]; read-out: PI3K α In Vitro IC50): < 100 nM; IC50 ([2]; read-out: PI3K γ In Vitro IC50): < 1000 nM; IC50 ([3]; read-out: PI3K β In Vitro IC50): < 10000 nM; IC50 ([4]; read-out: PI3K δ In Vitro IC50): < 10000 nM
Nc1nc2cc(-c3ccc4ncc(N5CCN(C(=O)[C@H]6CCCN6)CC5)nc4c3)ccc2o1 [compound 225]	–	–	–	–	< 100 nM	< 100 nM	< 100 nM	< 100 nM	–
Nc1nc2cc(-c3ccc4ncc(N5CC(N6CCOCC6)C5)nc4c3)cc(F)c2o1 [compound 361]	–	–	–	–	< 100 nM	< 1000 nM	< 1000 nM	< 10000 nM	–
Nc1nc2cc(-c3ccc4ncc(C(=O)N5CCC(N6CCOCC6)CC5)n4c3)ccc2o1 [compound 163]	< 1000 nM	< 10000 nM	< 10000 nM	< 10000 nM	–	–	–	–	–
CC1CN(c2cnc3ccc(-c4ccc5oc(N)nc5c4)cc3n2)CC(C)N1 (stereo not drawn) [compound 131]	< 1000 nM	< 1000 nM	< 1000 nM	< 1000 nM	–	–	–	–	–
Nc1nc2cc(-c3ccc4ncc(C(=O)NC5CCOCC5)n4c3)ccc2o1 [compound 83]	< 100 nM	< 100 nM	< 10000 nM	< 100 nM	–	–	–	–	–
Nc1nc2cc(-c3ccc4ncc(N5CC[C@H](N6CCOCC6)C5)nc4c3)ccc2o1 [compound 375]	–	–	–	–	< 1000 nM	< 1000 nM	< 10000 nM	< 1000 nM	–
Nc1nc2ccc(-c3cc(F)c4oc(N)nc4c3)cc2o1 [compound 433]	–	–	–	–	–	–	–	–	IC50 ([1]; read-out: PI3K α In Vitro IC50): < 1000 nM; IC50 ([2]; read-out: PI3K γ In Vitro IC50): < 100 nM; IC50 ([3]; read-out: PI3K β In Vitro IC50): < 1000 nM; IC50 ([4]; read-out: PI3K δ In Vitro IC50): < 10000 nM
Nc1nc2cc(-c3ccc4ncc(-c5cn[nH]c5)n4n3)ccc2o1 [compound 59]	< 100 nM	< 100 nM	< 100 nM	< 1000 nM	–	–	–	–	–
CS(=O)(=O)N1CCC(Nc2cnc3ccc(-c4ccc5oc(N)nc5c4)cc3n2)CC1 [compound 95]	< 100 nM	< 100 nM	< 10000 nM	< 100 nM	–	–	–	–	–
Cc1cc(-c2ccc3ncc(N4CC(N5CCOCC5)C4)nc3c2)cc2nc(N)oc12 [compound 365]	–	–	–	–	< 10000 nM	< 10000 nM	< 10000 nM	< 10000 nM	–
CC(Oc1nc(-c2ccc3oc(N)nc3c2)cnc1N)C(F)(F)F (stereo not drawn) [compound 239]	–	–	–	–	< 10000 nM	< 10000 nM	< 1000 nM	< 10000 nM	–
Nc1nc2cc(-c3ccc4ncc(C(=O)N5CCC5)n4c3)ccc2o1 [compound 197]	–	–	–	–	< 100 nM	< 100 nM	< 10000 nM	< 10000 nM	–
Nc1nc2cc(-c3ccc4ncc(N5CC(N)C5)nc4c3)ccc2o1 [compound 367]	–	–	–	–	< 1000 nM	< 1000 nM	< 1000 nM	< 10000 nM	–
Nc1nc2cc(-c3ccc4ncc(C(=O)N5CCOCC5)n4c3)c(F)cc2o1 [compound 372]	–	–	–	–	< 1000 nM	< 10000 nM	< 10000 nM	< 10000 nM	–
CN1CCN(CCNC(=O)c2cnc3ccc(-c4ccc5oc(N)nc5c4)cn23)CC1 [compound 306]	–	–	–	–	< 100 nM	< 1000 nM	< 1000 nM	< 1000 nM	–
Nc1nc2cccc(-c3ccc4nccc(-c5ccncc5)c4c3)c2s1 [compound 17]	< 100 nM	< 100 nM	< 1000 nM	< 1000 nM	–	–	–	–	–
CN1CCC(N(C)c2cnc3ccc(-c4ccc5oc(N)nc5c4)cc3n2)CC1 [compound 151]	< 100 nM	< 10000 nM	< 10000 nM	< 1000 nM	–	–	–	–	–
Nc1nc2cc(-c3ccc4ncc(N5CC(N6CCNCC6)C5)nc4c3)ccc2o1 [compound 326]	–	–	–	–	< 100 nM	< 1000 nM	< 1000 nM	< 1000 nM	–
